Among the data in patent US20150225369A1, “DDR2 INHIBITORS FOR THE TREATMENT OF OSTEOARTHRITIS” (Merck Patent GmbH, priority 2012, published 2015) are IC50 values, retold here.

The IC50 is the concentration that inhibits the measured activity by half.

The test system of the first assay is proMMP13 production by SW1353 cells. Briefly: Production of MMP13 (proMMP13 ELISA) by SW1353 cells upon stimulation with collagen type II. The settings on record: Homo sapiens, 72 h; SW1353 cells, 40 μg/mL collagen type II, three days; read-out: IC50 [pro-MMP13]. The assay is classed as cell-based. On the procedure:
The binding of Collagen type II to the DDR2 receptor of the SW1353 cells initiate a signalling cascade resulting in the increase of MMP13 expression. MMP13 is released in the culture medium in its pro-form, the proMMP13 which can be measured with an ELISA.
DDR2 inhibitors are evaluated for their ability to block this signalling cascade and therefore proMMP13 production upon collagen stimulation.
SW1353 cells (ATCC, HTB-94), conserved in liquid nitrogen, are thawed and cultivated at 1.6.10^6 cells in a T75 in RPMI1640 supplemented with 2 mM Glutamin, 1 mM Na-Pyruvate, 10% FCS, at 37° C., 5% CO2 for three days. SW1353 cells are then harvested with trypsin/EDTA and resuspended in RPMI1640 supplemented with 2 mM Glutamin, 1 mM Na-Pyruvate, 25 mM HEPES and 0.5% FCS (assay medium) and inoculated in a 96 well plate at 30 000 cells/well in 100 μL of the assay medium and further incubated 24 hours at 37°, 5% CO2 to enable cell adhesion. For stimulation of the DDR2 receptor, 50 μL of a collagen type II solution 160 μg/mL (final concentration in the well is 40 μg/mL) will be added in each well as well as 50 μL of the different dilutions of the inhibitors (MSCs) from 0.003 μM to 10 μM (final concentration in the plate). Each condition is performed in four-plicates. After three additional days of culture, the supernatant will be harvested for proMMP13 measurement.
The Different Controls Present on Each Plate are Composed of Assay Medium with: Positive control (with the reference compound): 40 μg/mL Collagen type II, 0.03 μM Dasatinib (reference compound) in 0.1% DMSO Negative control (no inhibition): 40 μg/mL Collagen type II and 0.1% DMSO Medium control (no stimulation): 0.005% Acetic acid and 0.1% DMSO All wells contains 0.1% DMSO and 0.005% acetic acid.
The solutions needed are: • Collagen type II is diluted at 2 mg/mL in 0.25% acetic acid. This stock solution can be stored at 4° C. for a week and is diluted 1/12.5 in the assay medium (to obtain 160 μg/mL in 0.02% acetic acid) before being used in the assay. • MSCs from 0.012 to 40 μM in assay medium with 0.4% DMSO (they are then further diluted ¼ in the assay plate) • Dasatinib 0.12 μM in assay medium with 0.4% DMSO (it is then further diluted ¼ in the assay plate) • Acetic acid 0.02% in assay medium (control).
The harvested supernatants are either directly used or stored at −20° C. until use. ProMMP13 is measured with a commercial ELISA kit, according the recommendation of the manufacturer (see Annex). Briefly, 50 μL of each samples are used undiluted and the standard curve is realised in the assay medium. At the end of the assay the ELISA plate is read on a Paradigm MTP-Reader (Beckman Coulter) at 540 (reference wavelength) and 450 nm. All the absorbance values obtained at 450 nm are corrected with the absorbance at 540 nm and a ‘Four Parameter Fit’ is used to establish the standard curve. From the standard curve the concentrations of proMMP13 in all the samples are calculated. All the calculations are realised by the Paradigm software.
The data reported in the database are the % effect of the compounds at the two highest concentrations (10 and 3 μM) as well as the IC50.
% effect at the two highest concentrations is calculated according to the formula: […]
The IC50s are calculated with the software Graph Pad Prism (see tables in Example 1).
In the case of `Cc1cc(Oc2ccc(CNC(=O)Nc3cc(C(F)(F)F)cn(C)c3=O)cc2C)ccn1` [compound 6], the IC50 was 0.258 µM.

Regarding `CNC(=O)c1cc(Oc2ccc(CNC(=O)Nc3cc(C(F)(F)F)cn(C)c3=O)cc2C)ccn1` [compound 7], the IC50 stood at 0.0329 µM.

Consider `COc1ncc(C)cc1NC(=O)NCc1ccc(Oc2ccncc2)cc1` [compound 18], for which the IC50 came to 0.733 µM.

For `CNC(=O)c1cc(Oc2ccc(CNC(=O)Nc3cc(C)cnc3OC)cc2)ccn1` [compound 19], the half-maximal inhibitory concentration (IC50) stood at 0.155 µM.

Turning to `CNC(=O)c1cc(Oc2ccc(CNC(=O)Nc3cc(Cl)cnc3OC)cc2)ccn1` [compound 21], the IC50 is 0.069 µM.

For the compound `CNC(=O)c1cc(Oc2ccc(CNC(=O)Nc3cc(Cl)cnc3OC)cc2C)ccn1` [compound 23], the IC50 came out at 0.0454 µM.

As for `CNC(=O)c1cc(Oc2ccc(CNC(=O)Nc3cc(C(F)(F)F)cnc3Cl)cc2C)ccn1` [compound 26], the IC50 came to 0.0424 µM.

For `COc1ncc(Cl)cc1NC(=O)NCc1ccc(Oc2ccnc(C)c2)c(C)c1` [compound 28], the IC50 stood at 0.348 µM.

On to `Cc1cc(Oc2ccc(CNC(=O)Nc3cc(C(F)(F)F)cnc3Cl)cc2C)ccn1` [compound 30], for which the half-inhibitory concentration (IC50) worked out at 0.96 µM.

Staying with this assay, now noted: Homo sapiens, SW1353, 72 h, read-out: IC50 [pro-MMP13].
As for `CNC(=O)c1cc(Oc2ccc(CNC(=O)Nc3cc(C(F)(F)F)cn(C)c3=O)cc2)ccn1` [compound 8], the IC50 was determined as 0.0148 µM.
